The IC50 is the concentration at which inhibition is half-maximal.

Where a name gives a salt, the structure may show the parent alone. Read-outs that look alike come from different tables or passages of the source.

The test system of assay [1] is mechanical allodynia after chronic constriction injury (CCI) to the sciatic nerve. As to the kind of experiment: Mechanical allodynia by response to von Frey fibers, rat chronic constriction injury (CCI) model. Format: in vivo, male Sprague-Dawley rats. The note with it: 2 hr post dosing. From the text:
Chronic Constriction Injury: Heat and cold allodynia responses as well as mechanical allodynia sensations can be evaluated as described below in rats having a chronic constriction injury (CCI). A unilateral mononeuropathy is produced in rats using the chronic constriction injury model described in Bennett et al., Pain (1988) 33:87-107. CCI is produced in anesthetized rats as follows. The lateral aspect of each rat's hind limb is shaved and scrubbed with Nolvasan. Using aseptic techniques, an incision is made on the lateral aspect of the hind limb at the mid-thigh level. The biceps femoris is bluntly dissected to expose the sciatic nerve. On the right hind limb of each rat, four loosely tied ligatures (for example, Chromic gut 4.0; Ethicon, Johnson and Johnson, Somerville, N.J.) are made around the sciatic nerve approximately 1-2 mm apart. On the left side of each rat, an identical dissection is performed except that the sciatic nerve is not ligated (sham). The muscle is closed with a continuous suture pattern with, e.g., 4-0 Vicryl (Johnson and Johnson, Somerville, N.J.) and the overlying skin is closed with wound clips. The rats are ear-tagged for identification purposes and returned to animal housing.
To induce allodynia, male Sprague-Dawley rats underwent chronic constriction injury (CCI) to the sciatic nerve as described by Bennett and Xie, Pain 1988; 33(1):87-107. The plantar surface of the hind paws was stimulated with von Frey filaments (Stoelting) to induce a withdrawal response by blinded personnel. The bending force of fiber required to induce a 50% withdrawal response was calculated following CCI surgery (pre-dosing baseline). N=5-6 allodynic rats received a single intraperitoneal administration of test compound or vehicle. Two hours post-dosing, 50% paw withdrawal threshold was determined again by blinded testers using von Frey filaments. The change in 50% withdrawal threshold relative to pre-dosing baseline is reported in Table 2 for various substituted pyrazolo[1,5-a]pyridine compounds of the invention.

Assay [2] has as its system TNF-α production in LPS-stimulated human peripheral blood mononuclear cells. As to the kind of experiment: Inhibition of LPS-stimulated TNF-α release from PBMCs. Format: cell-based. The note with it: PBMC. As to the method: (§1) IC50 values were determined for representative compounds of the invention based upon their ability to inhibit LPS-induced cytokine production in human peripheral blood mononuclear cells. Human PBMCs (peripheral blood mononuclear cells) were isolated over a Ficoll gradient from buffy coats obtained from the local Red Cross. 10^6 PBMC cells/well were seeded in 24-well tissue culture plates in RPMI 1640 medium supplemented with 10% human serum, hepes buffer and sodium pyruvate. The cells were treated with 0.1% DMSO (vehicle) or test compounds (1, 10, and 100 uM) 30 minutes prior to activation with LPS (lipopolysaccharide) (E. Coli) at 10 ng/mL. 6-10 hours post LPS stimulation the culture supernatants were collected and levels of cytokines TNF-α and IL-1β were quantified by ELISA (R&D Systems) and/or Luminex (Linco Diagnostics). IC50 calculations were plotted using a nonlinear regression curve fit for exemplary substituted pyrazolo[1,5-a]pyridine compounds of the invention; results are provided in Table 2.

Assay [3] deals with phosphodiesterase (PDE) enzyme derived from bovine brain. Put plainly: Inhibition of PDE (PDELight kit, cAMP substrate). Format: biochemical. The note with it: PDE from brain extract, cAMP as substrate. The procedure:
In a 96-well plate, phosphodiesterase (PDE) enzyme (0.5-1 mU/well) derived from bovine brain (Sigma) was combined with 5 uM cAMP substrate (Sigma). Test compounds (0-200 uM) or vehicle (0.5% DMSO) were added to the enzyme/substrate and incubated for 1 hour. Using a PDELight® kit (Cambrex), the amount of AMP produced in the reaction from the hydrolysis of cAMP was quantified using PDELight AMP Detection Reagent which converts the AMP directly to ATP. The assay uses luciferase, which catalyses the formation of light from the newly formed ATP and luciferin. The luminescence was read on a Victor Light 1420 luminometer. IC50 calculations were plotted using a nonlinear regression curve fit.

For assay [4], the system named is IL-1β production in LPS-stimulated human peripheral blood mononuclear cells. Put plainly: Inhibition of LPS-stimulated IL-1β release from PBMCs. The assay is classed as cell-based. The note with it: PBMC, LPS-stimulated cytokine release from PBMCs. As to the method:
as §1

[5] abbreviates: LPS-stimulated cytokine release from PBMCs, read-out: TNF-α (IC50).
Where [6] appears, read: less than or equal to about 50 μM, PBMCs, read-out: IC50, LPS-induced cytokine production (cytokine not specified).

`CC(C)C(=NO)c1c(-c2ccc(F)cc2)nn2ccccc12` [compound 1019, 1-(2-(4-fluorophenyl)pyrazolo[1,5-a]pyridin-3-yl)-2-methylpropan-1-one oxime]: the “Mechanical Allodynia ΔWT (change from pre-dosing 50% withdrawal threshold)” value in assay [1] (10 mg/kg IP) amounted to 1.4 grams. The values for the IC50 in assay [2] (setting [5]), in assay [3] and in assay [4] were > 100 µM, 40 µM and > 100 µM, respectively.

For `CC(C)c1nn2ccccc2c1C(=O)c1ccc(Cl)cc1` [Compound 1007, (4-chlorophenyl)(2-isopropylpyrazolo[1,5-a]pyridin-3-yl)methanone], the “Mechanical Allodynia ΔWT (change from pre-dosing 50% withdrawal threshold)” value in assay [1] (10 mg/kg IP) is given as 0.92 grams. Moreover, the IC50 in assay [2] (setting [5]) is 13 µM; in assay [2] (setting [6]), ≤ 50 µM; in assay [3] it was > 200 µM; in assay [4] it was 29.7 µM.

As for `CC(C)c1nn2ccccc2c1C(=O)CN` [Compound 1009, 2-amino-1-(2-isopropylpyrazolo[1,5-a]pyridin-3-yl)ethanone], the “Mechanical Allodynia ΔWT (change from pre-dosing 50% withdrawal threshold)” value in assay [1] (10 mg/kg IP) is 1.15 grams. Also, the half-inhibitory concentration (IC50) is 25 µM in assay [2] (setting [5]), ≤ 50 µM in assay [2] (setting [6]), > 200 µM in assay [3] and 99 µM in assay [4].

In the case of `COc1ccc2c(C(=O)C(C)C)c(C(C)C)nn2c1` [compound 1005, 1-(2-isopropyl-6-methoxypyrazolo[1,5-a]pyridin-3-yl)-2-methylpropan-1-one], the “Mechanical Allodynia ΔWT (change from pre-dosing 50% withdrawal threshold)” value in assay [1] (10 mg/kg IP) came to 0.17 grams. The figures for the IC50 in assay [2] (setting [5]) and in assay [3] were 76 µM and 59.5 µM, respectively.

In the case of `COc1ccc(C(=O)c2c(C(C)C)nn3ccccc23)cc1` [Compound 1008, (2-isopropylpyrazolo[1,5-a]pyridin-3-yl)(4-methoxyphenyl)methanone], the “Mechanical Allodynia ΔWT (change from pre-dosing 50% withdrawal threshold)” value in assay [1] (10 mg/kg IP) came out at 0.84 grams. Moreover, the IC50 is 50 µM in assay [2] (setting [5]), ≤ 50 µM in assay [2] (setting [6]), 5.8 µM in assay [3] and > 100 µM in assay [4].

Consider `CC(C)C(=NOC(N)=O)c1c(C(C)C)nn2ccccc12` [compound 1014, 1-(2-isopropylpyrazolo[1,5-a]pyridin-3-yl)-2-methylpropan-1-one O-carbamoyl oxime], for which the “Mechanical Allodynia ΔWT (change from pre-dosing 50% withdrawal threshold)” value in assay [1] (10 mg/kg IP) is 10 mg/kg: 2.18 grams; in assay [1] (20 mg/kg IP), 20 mg/kg: 3.73 grams. Besides, the IC50 in assay [2] (setting [5]) was 1.3 µM; in assay [2] (setting [6]), ≤ 50 µM; in assay [3], 100 µM; in assay [4], 1 µM.

Take `CC(C)c1nn2ccccc2c1C(=O)C(C)(C)O` [compound 1004, 2-hydroxy-1-(2-isopropylpyrazolo[1,5-a]pyridin-3-yl)-2-methylpropan-1-one]: in assay [1] (10 mg/kg IP), the “Mechanical Allodynia ΔWT (change from pre-dosing 50% withdrawal threshold)” value is on record as 0.48 grams. The IC50 in assay [2] (setting [5]) is 28.8 µM; in assay [2] (setting [6]), ≤ 50 µM; in assay [3], 12.6 µM; in assay [4], > 100 µM.

On to `CC(C)c1nn2ccccc2c1C(=O)C(C)N1CCN(C)CC1` (stereo not shown) [Compound 1035, 1-(2-isopropylpyrazolo[1,5-a]pyridin-3-yl)-2-(4-methylpiperazin-1-yl)propan-1-one hydrochloride], for which the “Mechanical Allodynia ΔWT (change from pre-dosing 50% withdrawal threshold)” value in assay [1] (10 mg/kg IP) came to 0 grams. The compound further gave an IC50 in assay [3] of 198 µM.

On to `CC(C)C(=NOC(N)=O)c1c(-c2ccccc2)nn2ccccc12` [Compound 1017, 2-methyl-1-(2-phenylpyrazolo[1,5-a]pyridin-3-yl)propan-1-one O-carbamoyl oxime], for which the “Mechanical Allodynia ΔWT (change from pre-dosing 50% withdrawal threshold)” value in assay [1] (10 mg/kg IP) was determined as 0.91 grams. Besides, the IC50 in assay [3] is > 200 µM.

In the case of `CC(C)c1nn2ccccc2c1C(=O)c1ncccc1Cl` [Compound 1038, (3-chloropyridin-2-yl)(2-isopropylpyrazolo[1,5-a]pyridin-3-yl)methanone], the “Mechanical Allodynia ΔWT (change from pre-dosing 50% withdrawal threshold)” value in assay [1] (10 mg/kg IP) was 0.32 grams. The IC50 in assay [3] came to 26.4 µM.

On to `CC(N)C(=O)c1c(C(C)C)nn2ccccc12` (stereo not shown) [compound 1013, 2-amino-1-(2-isopropylpyrazolo[1,5-a]pyridin-3-yl)propan-1-one], for which the “Mechanical Allodynia ΔWT (change from pre-dosing 50% withdrawal threshold)” value was 10 mg/kg: 1.04 grams in assay [1] (10 mg/kg IP), 20 mg/kg: 1.33 grams in assay [1] (20 mg/kg IP), 25 mg/kg PO: 1.39 grams in assay [1] (25 mg/kg PO) and 40 mg/kg: 3.16 grams in assay [1] (40 mg/kg IP). Further, the IC50 in assay [2] (setting [5]) is 13.6 µM; in assay [2] (setting [6]), ≤ 50 µM; in assay [3] it was > 200 µM; in assay [4], > 100 µM.

As for `CC(C)C(=O)c1c(C(C)C)nn2cc(O)ccc12` [compound 1006, 1-(6-hydroxy-2-isopropylpyrazolo[1,5-a]pyridin-3-yl)-2-methylpropan-1-one], in assay [1] (10 mg/kg IP), the “Mechanical Allodynia ΔWT (change from pre-dosing 50% withdrawal threshold)” value came to 0 grams. The IC50 in assay [2] (setting [5]) was 1.3 µM; in assay [2] (setting [6]), ≤ 50 µM; in assay [3] it was 29.6 µM; in assay [4], 14.7 µM.

Take `CC(C)C(=NO)c1c(C(C)C)nn2ccccc12` [Compound 1012, 1-(2-isopropylpyrazolo[1,5-a]pyridin-3-yl)-2-methylpropan-1-one oxime]: in assay [1] (10 mg/kg IP), the “Mechanical Allodynia ΔWT (change from pre-dosing 50% withdrawal threshold)” value is given as 1.56 grams. For the same compound, the figures for the half-maximal inhibitory concentration (IC50) in assay [2] (setting [5]), in assay [3] and in assay [4] were > 100 µM, 40 µM and 99 µM, respectively.

Consider `CC(C)=Cc1c(C(C)C)nn2ccccc12` [compound 1049, 2-isopropyl-3-(2-methylprop-1-enyl)pyrazolo[1,5-a]pyridine], for which, in assay [1] (10 mg/kg IP), the “Mechanical Allodynia ΔWT (change from pre-dosing 50% withdrawal threshold)” value was determined as 0 grams. This compound yielded an IC50 in assay [3] of 92.5 µM.

For the compound `CNC(C)C(=O)c1c(C(C)C)nn2ccccc12` (stereo not shown) [Compound 1042, 1-(2-isopropylpyrazolo[1,5-a]pyridin-3-yl)-2-(methylamino)propan-1-one hydrochloride], the results for the “Mechanical Allodynia ΔWT (change from pre-dosing 50% withdrawal threshold)” value in assay [1] (10 mg/kg IP) and in assay [1] (20 mg/kg IP) were 10 mg/kg: 0.37 grams and 20 mg/kg: 0.22 grams, respectively. In assay [3], this compound gave an IC50 of 31.9 µM.

In the case of `CC(C)c1nn2ccccc2c1C(=O)C(C)N1CCCCC1` (stereo not shown) [Compound 1036, 1-(2-isopropylpyrazolo[1,5-a]pyridin-3-yl)-2-(piperidin-1-yl)propan-1-one hydrochloride], in assay [1] (10 mg/kg IP), the “Mechanical Allodynia ΔWT (change from pre-dosing 50% withdrawal threshold)” value was found to be 0 grams. In addition, in assay [3], the IC50 is > 200 µM.

Regarding `CC(C)c1nn2ccccc2c1C(NC1CC1)C(C)C` (stereo not shown) [Compound 1044, N-(1-(2-isopropylpyrazolo[1,5-a]pyridin-3-yl)-2-methylpropyl)cyclopropanamine], the “Mechanical Allodynia ΔWT (change from pre-dosing 50% withdrawal threshold)” value in assay [1] (10 mg/kg IP) came to 0.08 grams. Further, the IC50 in assay [3] was > 200 µM.

As to `CC(C)c1nn2ccccc2c1C(NCC1CC1)C(C)C` (stereo not shown) [Compound 1048, N-(cyclopropylmethyl)-1-(2-isopropylpyrazolo[1,5-a]pyridin-3-yl)-2-methylpropan-1-amine hydrochloride], the “Mechanical Allodynia ΔWT (change from pre-dosing 50% withdrawal threshold)” value in assay [1] (10 mg/kg IP) came to 0 grams. The IC50 in assay [3] is > 200 µM.

Regarding `CC(C)C(=O)c1c(-c2ccc(Cl)cc2)nn2ccccc12` [Compound 1024, 1-(2-(4-chlorophenyl)pyrazolo[1,5-a]pyridin-3-yl)-2-methylpropan-1-one], in assay [1] (10 mg/kg IP), the “Mechanical Allodynia ΔWT (change from pre-dosing 50% withdrawal threshold)” value is listed as 0.43 grams. The IC50 in assay [2] (setting [6]) was ≤ 50 µM; in assay [3], 18.2 µM.

The values are drawn from US7585875B2, “Substituted pyrazolo[1,5-a]pyridine compounds and their methods of use” (Avigen, Inc., priority 2006, dated 2009).
